Legend:
[1] = Effect of inhibitors on crystal morphology (COM/COD/COT); settings: 100 mg/L; 1 hr after start of reaction; control yields COM
[2] = Calcium binding (free Ca in solution before oxalate addition); assay type: physicochemical; settings: inhibitor 100 mg/L; ~1.0 mM if no Ca binding occurs; control 1.02 mM
Experimental: Calcium binding was determined before oxalate addition. Crystals were obtained after the end of the kinetic experiments (1 hour), filtered, dried and tested by FTIR. The major polymorph was reported; other phases may be present but their peaks were not distinguishable in IR. Initial calcium and oxalate concentrations was the same, approximately 1 mM in pH buffered medium containing 10 mM HEPES and 150 mM NaCl. […] The data are Ca recordings obtained from solutions containing the inhibitor (100 mg/L) and calcium. The Ca ion concentration should be ˜1.0 mM if no Ca binding occurs. This could be related to the type of adsorption on the crystals as reported in a later section. Some of our proposed KSIs are showing significant Ca binding activity, and these are likely to be the best candidates as inhibitors.

In the case of O=C(O)CN(CCN(CC(=O)O)CC(=O)O)CCN(CC(=O)O)CC(=O)O [DTPA, diethylenetriaminepentaacetic acid], the “crystal phase obtained (COM, COD or COT)” value [1] is reported as “COT” and the “Ca2+ concentration in the presence of inhibitors at 100 mg/L (PPM)” value [2] is reported as 0.71 mM.

From US20170095504A1, “Inhibitors of Kidney Stone Formation and Calcium Deposition” (priority 2015, published 2017)
